Data reported in patent US20190263796A1, “LIM KINASE INHIBITORS, PHARMACEUTICAL COMPOSITION AND METHOD OF USE IN LIMK-MEDIATED DISEASES” (CELLIPSE, priority 2016, published 2019).
Like-named read-outs stand apart in the source and are kept apart here.

Legend:
[1] = system: Phospho-Ser3-Cofilin/Total Cofilin; experiment: Western blot of cellular cofilin phosphorylation status, MV4-11 (II.4); assay type: cell-based; conditions: Homo sapiens; MV4-11 cells; 2 h treatment
Method: MV4-11 cell line was originally purchased from the American Type Culture Collection (ATCC). MV4-11 cells are cultured in RPMI 1640 10% (v/v) FBS supplemented with 100 U/mL^−1 penicillin, 0.1 mg·mL^−1 streptomycin (PAN Biotech P06-07100) and 2 mM Glutamine (Sigma-Aldrich 59202C). Cells were maintained at 37° C. with 5% CO2.
(§1) In a 6 wells plate (Falcon 353046), 2·10^6 cells in 1.5 mL medium are treated for 2 h with compounds. Cells are then collected and cell lysis is performed at 4° C. using RIPA buffer supplemented with protease inhibitors cocktail (Sigma-Aldrich P8340) and phosphatase inhibitors cocktail (Sigma-Aldrich P5726). Following centrifugation 30 min 15000 g 4° C., supernatants are mixed with Laemmli buffer and denaturation is performed by heating 5 min 95° C. 10 μL of samples are subjected to electrophoresis on 15% SDS-PAGE. After electro-transfer (Mini Transblot, Bio-Rad), the PVDF membrane (Merck-Millipore Immobilon P IPVH00010) is blocked with Tris Buffered Saline, pH 7.4 (TBS) with 0.1% Tween 20 and 5% BSA for 1 h RT under agitation. The membrane was rinsed 3 times 10 min RT under agitation with TBS, 0.1% Tween-20 (TBST) and then 1 h RT with anti-phospho-Ser3-cofilin (Cell Signaling Technology #3313, 1/1000 dilution) antibody or anti-cofilin (Cell Signaling Technology #3312, 1/1000 dilution) diluted in TBS, 0.1% Tween 20 and 1% BSA. The membrane is then rinsed 3 times 10 min RT under agitation in TBST and incubated for 1 hour with anti-rabbit secondary antibody, horseradish peroxidase conjugated (Jackson Immunoresearch #711-036-152) under agitation at room temperature. After three washes 10 min RT in TBST, the detection of total or phosphorylated cofilin was performed using chemiluminescence kit ECL™ Plus (GE Healthcare RPN2132). For each concentration of compound, ratio between phosphorylated cofilin and total cofilin is determined. This ratio is then expressed as percentage of control ratio (i.e ratio from DMSO treated cells). IC50 is then determined.

LIMK1(h) = LIMK1(h) (Homo sapiens, UniProt P53667); experiment: LIMK1 kinase assay (Eurofins Panlabs, radiometric); assay type: biochemical; set-up: purchased Eurofins Panlabs Inc. (contract assay service); conditions: 15 μM ATP, read-out: IC50 LIMK1
Method: Compounds were tested in a LIMK1 assay performed by Eurofins Panlabs Inc. LIMK1 (h) is incubated with 8 mM MOPS pH 7.0, 0.2 mM EDTA, 0.6 mg/mL cofilin, 10 mM Magnesium acetate and [gamma-33P]-ATP. The reaction is initiated by the addition of the Mg/ATP mix. After incubation for 40 min at room temperature, the reaction is stopped by the addition of phosphoric acid to a concentration of 0.5%. […] IC50 LIMK1 is then determined.

B-Raf(h) = B-Raf(h) (Homo sapiens, UniProt P15056); experiment: B-Raf kinase assay (Eurofins Panlabs, radiometric); assay type: biochemical; set-up: purchased Eurofins Panlabs Inc. (contract assay service); conditions: Table 8; for IC50: 120 μM ATP, read-out: IC50 B-Raf; for Selectivity ratio: IC50 B-Raf (nM) divided by IC50 LIMK1 (nM)
Method: IC50 B-Raf is then determined.
Selectivity ratios are calculated by dividing the IC50 B-Raf (nM) by the IC50 LIMK1 (nM).

[2] = system: Phospho-Ser3-Cofilin/Total Cofilin; experiment: Western blot cofilin phosphorylation, MOLM-14; assay type: cell-based; conditions: MOLM-14 cells; 2 h
Method: (§2) MOLM-14 cell line was originally purchased from the American Type Culture Collection (ATCC). MOLM-14 cells are cultured in MEM alpha 10% (v/v) FBS supplemented with 100 U/mL^−1 penicillin, 0.1 mg·mL^−1 streptomycin (PAN Biotech P06-07100). Cells were maintained at 37° C. with 5% CO2.
as §1, with “10 min at room temperature under agitation” for “10 min RT under agitation”, “1 h at room temperature with anti-phospho-Ser3-cofilin” for “1 h RT with anti-phospho-Ser3-cofilin”, “for 1 h with anti-rabbit” for “for 1 hour with anti-rabbit”, “10 min at room temperature in TBST,” for “10 min RT in TBST,”, “control ratio (i.e., ratio from” for “control ratio (i.e ratio from”, “cells). IC50 Phospho-Ser3-Cofilin/Total Cofilin is then” for “cells). IC50 is then”

[3] = system: Phospho-Ser3-Cofilin/Total Cofilin; experiment: Western blot cofilin phosphorylation, HL-60; assay type: cell-based; conditions: Homo sapiens; HL-60 cells; 2 h
Method: (§3) HL-60 cell line was originally purchased from the Leibniz-Institut Deutsche Sammlung von Mikroorganismen und Zellkulturen GmbH (DSMZ). HL-60 cells are cultured in RPMI 1640 10% (v/v) FBS supplemented with 100 U/mL^−1 penicillin, 0.1 mg·mL^−1 streptomycin (PAN Biotech P06-07100). Cells were maintained at 37° C. with 5% CO2.
as §1, with “10 min at room temperature under agitation” for “10 min RT under agitation”, “1 h at room temperature with anti-phospho-Ser3-cofilin” for “1 h RT with anti-phospho-Ser3-cofilin”, “for 1 h with anti-rabbit” for “for 1 hour with anti-rabbit”, “10 min at room temperature in TBST,” for “10 min RT in TBST,”, “control ratio (i.e., ratio from” for “control ratio (i.e ratio from”, “cells). IC50 Phospho-Ser3-Cofilin/Total Cofilin is then” for “cells). IC50 is then”

[4] = system: Phospho-Ser3-Cofilin/Total Cofilin; experiment: Western blot cofilin phosphorylation, Kasumi-1; assay type: cell-based; conditions: Homo sapiens; Kasumi-1 cells; 2 h
Method: Kasumi-1 cell line was originally purchased from the American Type Culture Collection (ATCC). Kasumi-1 cells are cultured in RPMI 1640 20% (v/v) FBS supplemented with 100 U/mL^−1 penicillin, 0.1 mg·mL^−1 streptomycin (PAN Biotech P06-07100). Cells were maintained at 37° C. with 5% CO2.
In a 6 wells plate (Falcon 353046), 2·10^6 cells in 1.5 mL medium are treated for 2 h with compounds. Cells are then collected and cell lysis is performed at 4° C. using RIPA buffer supplemented with protease inhibitors cocktail (Sigma-Aldrich P8340) and phosphatase inhibitors cocktail (Sigma-Aldrich P5726). Following centrifugation 30 min 15000 g 4° C., supernatants are mixed with Laemmli buffer and denaturation is performed by heating 5 min 95° C. 10 μL of samples are subjected to electrophoresis on 15% SDS-PAGE. After electro-transfer (Mini Transblot, Bio-Rad), the PVDF membrane (Merck-Millipore Immobilon P IPVH00010) is blocked with Tris Buffered Saline, pH 7.4 (TBS) with 0.1% Tween 20 and 5% BSA for 1 h RT under agitation. […] For each concentration of compound, ratio between phosphorylated cofilin and total cofilin is determined. This ratio is then expressed as percentage of control ratio (i.e., ratio from DMSO treated cells). IC50 Phospho-Ser3-Cofilin/Total Cofilin is then determined.

[5] = system: Phospho-Ser3-Cofilin/Total Cofilin; experiment: Western blot cofilin phosphorylation, MOLM-13; assay type: cell-based; conditions: MOLM-13 cells; 2 h
Method: as §3, with “MOLM-13” for “HL-60”, “20%” for “10%”
as §1, with “10 min at room temperature under agitation” for “10 min RT under agitation”, “1 h at room temperature with anti-phospho-Ser3-cofilin” for “1 h RT with anti-phospho-Ser3-cofilin”, “for 1 h with anti-rabbit” for “for 1 hour with anti-rabbit”, “10 min at room temperature in TBST,” for “10 min RT in TBST,”, “control ratio (i.e., ratio from” for “control ratio (i.e ratio from”, “cells). IC50 Phospho-Ser3-Cofilin/Total Cofilin is then” for “cells). IC50 is then”

P-MEK/Total MEK [6] = experiment: Western blot MEK1 phosphorylation, MOLM-14; assay type: cell-based; conditions: read-out: IC50 P-MEK/Total MEK; MOLM-14 cells; 2 h
Method: as §2
(§4) In a 6 wells plate (Falcon 353046), 2·10^6 cells in 1.5 mL medium are treated for 2 h with compounds. Cells are then collected and cell lysis is performed at 4° C. using RIPA buffer supplemented with protease inhibitors cocktail (Sigma-Aldrich P8340) and phosphatase inhibitors cocktail (Sigma-Aldrich P5726). Following centrifugation 30 min 15000 g 4° C., supernatants are mixed with Laemmli buffer and denaturation is performed by heating 5 min 95° C. 10 μL of samples are subjected to electrophoresis on 15% SDS-PAGE. After electro-transfer (Mini Transblot, Bio-Rad), the PVDF membrane (Merck-Millipore Immobilon P IPVH00010) is blocked with Tris Buffered Saline, pH 7.4 (TBS) with 0.1% Tween 20 and 5% BSA for 1 h at room temperature under agitation. The membrane was rinsed 3 times 10 min at room temperature under agitation with TBS, 0.1% Tween-20 (TBST) and then 1 h at room temperature with anti-phospho-Ser218/222-MEK1 (Merck-Millipore 07-461, 1/1000 dilution) antibody or anti-MEK1 (Merck-Millipore 07-641, 1/1000 dilution) diluted in TBS, 0.1% Tween 20 and 1% BSA. The membrane is then rinsed 3 times 10 min RT under agitation in TBST and incubated for 1 h with anti-rabbit secondary antibody, horseradish peroxidase conjugated (Jackson Immunoresearch #711-036-152) under agitation at room temperature. After three washes 10 min at room temperature in TBST, the detection of total or phosphorylated cofilin was performed using chemiluminescence kit ECL™ Plus (GE Healthcare RPN2132). For each concentration of compound, ratio between phosphorylated cofilin and total cofilin is determined. This ratio is then expressed as percentage of control ratio (i.e., ratio from DMSO treated cells). IC50 P-MEK/Total MEK is then determined.
(§5) Selectivity ratios are calculated by dividing the IC50 P-MEK/Total MEK value (μM) by the IC50 Phospho-Ser3-Cofilin/Total Cofilin value (μM).

P-MEK/Total MEK [7] = experiment: Western blot MEK1 phosphorylation, HL-60; assay type: cell-based; conditions: Homo sapiens, HL-60, 2 h, read-out: IC50 P-MEK/Total MEK
Method: as §3, §4, §5

P-MEK/Total MEK [8] = experiment: Western blot MEK1 phosphorylation, Kasumi-1; assay type: cell-based; conditions: Homo sapiens, Kasumi 1, 2 h, read-out: IC50 P-MEK/Total MEK
Method: Cells were maintained at 37° C. with 5% CO2.
as §4, §5

P-MEK/Total MEK [9] = experiment: Western blot MEK1 phosphorylation, MOLM-13; assay type: cell-based; conditions: read-out: IC50 P-MEK/Total MEK; MOLM-13 cells; 2 h
Method: as §3, with “MOLM-13” for “HL-60”, “20%” for “10%”
as §4, §5

Sequence of B-Raf(h) (P15056 whole entry): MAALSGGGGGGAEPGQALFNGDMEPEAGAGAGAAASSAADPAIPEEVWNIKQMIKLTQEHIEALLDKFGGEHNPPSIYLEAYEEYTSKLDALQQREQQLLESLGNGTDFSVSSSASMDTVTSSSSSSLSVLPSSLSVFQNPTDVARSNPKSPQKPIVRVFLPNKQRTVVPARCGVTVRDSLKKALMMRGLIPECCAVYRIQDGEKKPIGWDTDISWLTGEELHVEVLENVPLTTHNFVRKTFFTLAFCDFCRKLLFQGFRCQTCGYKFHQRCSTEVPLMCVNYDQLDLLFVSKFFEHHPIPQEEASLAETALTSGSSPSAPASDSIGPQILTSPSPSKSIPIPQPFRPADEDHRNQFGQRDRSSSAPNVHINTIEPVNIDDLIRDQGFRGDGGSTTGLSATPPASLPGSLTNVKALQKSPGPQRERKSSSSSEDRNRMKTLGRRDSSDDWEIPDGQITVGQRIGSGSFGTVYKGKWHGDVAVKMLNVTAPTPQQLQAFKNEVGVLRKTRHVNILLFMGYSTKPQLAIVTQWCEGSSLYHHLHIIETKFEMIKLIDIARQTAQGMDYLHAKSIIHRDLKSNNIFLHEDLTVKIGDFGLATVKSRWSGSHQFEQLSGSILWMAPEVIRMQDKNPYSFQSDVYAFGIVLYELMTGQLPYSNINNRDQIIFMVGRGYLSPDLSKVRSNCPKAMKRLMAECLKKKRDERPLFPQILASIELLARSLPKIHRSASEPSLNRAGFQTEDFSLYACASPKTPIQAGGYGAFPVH
Sequence of LIMK1(h) (P53667 whole entry): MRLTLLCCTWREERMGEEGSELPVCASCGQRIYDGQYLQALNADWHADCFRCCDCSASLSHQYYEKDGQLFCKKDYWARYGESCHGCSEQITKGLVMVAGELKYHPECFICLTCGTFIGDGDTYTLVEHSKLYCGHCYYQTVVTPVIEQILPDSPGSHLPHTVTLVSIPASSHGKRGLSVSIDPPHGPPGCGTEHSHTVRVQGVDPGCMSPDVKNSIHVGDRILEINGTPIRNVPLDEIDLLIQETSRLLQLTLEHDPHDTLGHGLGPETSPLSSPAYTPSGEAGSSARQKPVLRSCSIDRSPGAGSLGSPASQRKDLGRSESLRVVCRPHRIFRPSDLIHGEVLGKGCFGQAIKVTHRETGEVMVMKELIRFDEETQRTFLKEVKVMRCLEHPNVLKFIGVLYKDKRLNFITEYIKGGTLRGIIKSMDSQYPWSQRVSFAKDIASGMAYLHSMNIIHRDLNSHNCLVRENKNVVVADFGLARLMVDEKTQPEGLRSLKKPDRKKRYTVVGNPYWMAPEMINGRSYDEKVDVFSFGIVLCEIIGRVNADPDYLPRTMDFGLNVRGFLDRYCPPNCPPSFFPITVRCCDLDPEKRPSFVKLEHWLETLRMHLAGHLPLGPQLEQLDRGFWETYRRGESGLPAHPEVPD

Row | Compound | IC50 [1] | IC50 (LIMK1(h); Table 2) | IC50 (B-Raf(h)) | Selectivity ratio (B-Raf(h)) | also measured
1 | CC(C)(C)c1nc(-c2cccc(NS(=O)(=O)c3c(F)cccc3F)c2F)c(-c2ncnc3[nH]ccc23)s1 [Compound 7, N-(3-(2-(tert-butyl)-5-(7H-pyrrolo[2,3-d]pyrimidin-4-yl)thiazol-4-yl)-2-fluorophenyl)-2,6-difluorobenzenesulfonamide] | 200 to 1000 nM | 500 to 5000 nM | – | – | –
2 | CC(C)(C)c1nc(-c2cccc(NC(=O)C(=O)c3c(F)cccc3F)c2F)c(-c2ccnc(Nc3ccccc3)n2)s1 [Compound 5, N-(3-(2-(tert-butyl)-5-(2-(phenylamino)pyrimidin-4-yl)thiazol-4-yl)-2-fluorophenyl)-2-(2,6-difluorophenyl)-2-oxoacetamide] | – | 100 to 500 nM | 500 to 5000 nM | 11 | IC50 (LIMK1(h); Table 8): 500 to 5000 nM
3 | CC(C)(C)OC(=O)Nc1cccc(-c2nc(C(C)(C)C)sc2-c2ccnc(Nc3ccccc3)n2)c1F [Compound 6, tert-butyl (3-(2-(tert-butyl)-5-(2-(phenylamino)pyrimidin-4-yl)thiazol-4-yl)-2-fluorophenyl)carbamate] | > 1000 nM | 500 to 5000 nM | 500 to 5000 nM | 16 | –
4 | CNC(=O)Cc1nc(-c2cccc(NS(=O)(=O)c3c(F)cccc3F)c2F)c(-c2ccnc(Nc3ccccc3)n2)s1 [9 (Na)] | – | – | – | – | IC50 [2]: < 200 nM; IC50 [3]: 200 to 1000 nM; IC50 [4]: 200 to 1000 nM; IC50 [5]: 200 to 1000 nM; IC50 (P-MEK/Total MEK [6]): 200 to 1000 nM; IC50 (P-MEK/Total MEK [7]): > 1000 nM; IC50 (P-MEK/Total MEK [8]): > 1000 nM; IC50 (P-MEK/Total MEK [9]): > 1000 nM

Second part, led by results:

Row | IC50 [1] | IC50 (LIMK1(h); Table 2) | IC50 (B-Raf(h)) | Selectivity ratio (B-Raf(h)) | Compound | also measured
5 | < 200 nM | 100 to 500 nM | – | – | CCCS(=O)(=O)Nc1cccc(-c2nc(C(C)(C)C)sc2-c2ccnc(Nc3ccccc3)n2)c1F [Compound 3, N-(3-(2-(tert-butyl)-5-(2-(phenylamino)pyrimidin-4-yl)thiazol-4-yl)-2-fluorophenyl)propane-1-sulfonamide] | –
6 | 200 to 1000 nM | 100 to 500 nM | – | – | CC(C)(C)c1nc(-c2cccc(NS(=O)(=O)CCC(F)(F)F)c2F)c(-c2ccnc(Nc3ccccc3)n2)s1 [Compound 4, N-(3-(2-(tert-butyl)-5-(2-(phenylamino)pyrimidin-4-yl)thiazol-4-yl)-2-fluorophenyl)-3,3,3-trifluoropropane-1-sulfonamide] | –
7 | > 1000 nM | < 10 nM | 10 to 100 nM | 4 | CCOC(=O)Cc1nc(-c2cccc(NS(=O)(=O)c3c(F)cccc3F)c2F)c(-c2ccnc(Nc3ccccc3)n2)s1 [Compound 2, ethyl 2-(4-(3-(2,6-difluorophenylsulfonamido)-2-fluorophenyl)-5-(2-(phenylamino)pyrimidin-4-yl)thiazol-2-yl)acetate] | –
8 | – | 100 to 500 nM | – | – | CC(C)(C)c1nc(-c2cccc(NS(=O)(=O)C3CC3)c2F)c(-c2ccnc(Nc3ccccc3)n2)s1 [Compound 10, N-(3-(2-(tert-butyl)-5-(2-(phenylamino)pyrimidin-4-yl)thiazol-4-yl)-2-fluorophenyl)cyclopropanesulfonamide] | –
